Data as given in patent US6358885B1, “Substituted phenylheterocyclic herbicides” (Mississippi State University, priority 1992, dated 2002).

Tests used:
Japonica rice [1] = test: Test D paddy water application plant response rating 0 to 100; assay type: in vivo, Oryza sativa; conditions: 0 to 100 scale, approx. 21 days
From the text: (§1) Plastic pots were partially filled with silt loam soil. The soil was then saturated with water. […] After planting, water levels were raised to 3 cm above the soil surface and maintained at this level throughout the test. Chemical treatments were formulated in a non-phytotoxic solvent and applied directly to the paddy water. Treated plants and controls were maintained in a greenhouse for approximately 21 days, after which all species were compared to controls and visually evaluated. […] A dash (-) response means no test result.

barnyardgrass [2] = test: as above; assay type: in vivo, Echinochloa crus-galli; conditions: 0 to 100 scale, approx. 21 days
From the text: as §1

duck salad = test: as above; assay type: in vivo, Heteranthera limosa; conditions: 0 to 100 scale, approx. 21 days
From the text: as §1

umbrella sedge = test: as above; assay type: in vivo, Cyperus difformis; conditions: 0 to 100 scale, approx. 21 days
From the text: as §1

arrowhead = test: as above; assay type: in vivo, Sagittaria spp.; conditions: 0 to 100 scale, approx. 21 days
From the text: as §1

waterchestnut = test: as above; assay type: in vivo, Eleocharis spp.; conditions: 0 to 100 scale, approx. 21 days
From the text: as §1

Japonica rice [3] = test: Test E paddy water application plant response rating 0 to 100; assay type: in vivo, oryza sativa; conditions: Flood, 0 to 100 scale, approx. 21 days
From the text: (§2) Plastic pots were partially filled with silt loam soil. […] At testing, the water level for all plantings was raised to 2 cm above the soil surface. Chemical treatments were formulated in a non-phytotoxic solvent and applied directly to the paddy water. Treated plants and controls were maintained in a greenhouse for approximately 21 days, after which all species were compared to controls and visually evaluated. […] A dash (-) response means no test result.

barnyardgrass [4] = test: as above; assay type: in vivo, Echinochloa crus-galli; conditions: Flood, 0 to 100 scale, approx. 21 days
From the text: as §2

C=C(Cl)COc1cc(-c2nn3c(c2Cl)CCCC3)c(F)cc1Cl [Compound 40]
Japonica rice plant response rating (Japonica rice [1]; Rate 4 g/ha): 10 | Japonica rice plant response rating (Japonica rice [1]; Rate 8 g/ha): 10 | Japonica rice plant response rating (Japonica rice [1]; Rate 16 g/ha): 15 | Japonica rice plant response rating (Japonica rice [1]; Rate 32 g/ha): 20 | Japonica rice plant response rating (Japonica rice [1]; Rate 64 g/ha): 30 | Barnyardgrass 2 plant response rating (barnyardgrass [2]; Rate 4 g/ha): 20 | Barnyardgrass 2 plant response rating (barnyardgrass [2]; Rate 8 g/ha): 65 | Barnyardgrass 2 plant response rating (barnyardgrass [2]; Rate 16 g/ha): 70 | Barnyardgrass 2 plant response rating (barnyardgrass [2]; Rate 32 g/ha): 100 | Barnyardgrass 2 plant response rating (barnyardgrass [2]; Rate 64 g/ha): 100 | Duck salad plant response rating (duck salad; Rate 4 g/ha): 0 | Duck salad plant response rating (duck salad; Rate 8 g/ha): 0 | Duck salad plant response rating (duck salad; Rate 16 g/ha): 0 | Duck salad plant response rating (duck salad; Rate 32 g/ha): 0 | Duck salad plant response rating (duck salad; Rate 64 g/ha): 45 | Umbrella sedge plant response rating (umbrella sedge; Rate 4 g/ha): 0 | Umbrella sedge plant response rating (umbrella sedge; Rate 8 g/ha): 0 | Umbrella sedge plant response rating (umbrella sedge; Rate 16 g/ha): 15 | Umbrella sedge plant response rating (umbrella sedge; Rate 32 g/ha): 30 | Umbrella sedge plant response rating (umbrella sedge; Rate 64 g/ha): 80 | Arrowhead plant response rating (arrowhead; Rate 4 g/ha): 0 | Arrowhead plant response rating (arrowhead; Rate 8 g/ha): 0 | Arrowhead plant response rating (arrowhead; Rate 16 g/ha): 0 | Arrowhead plant response rating (arrowhead; Rate 32 g/ha): 0 | Arrowhead plant response rating (arrowhead; Rate 64 g/ha): 0 | Waterchestnut plant response rating (waterchestnut; Rate 4 g/ha): 20 | Waterchestnut plant response rating (waterchestnut; Rate 8 g/ha): 20 | Waterchestnut plant response rating (waterchestnut; Rate 16 g/ha): 30 | Waterchestnut plant response rating (waterchestnut; Rate 32 g/ha): 30 | Waterchestnut plant response rating (waterchestnut; Rate 64 g/ha): 60 | Japonica 1 plant response rating (Japonica rice [3]; Rate 8 g/ha): 15 | Japonica 2 plant response rating (Japonica rice [3]; Rate 8 g/ha): 10 | Japonica 1 plant response rating (Japonica rice [3]; Rate 16 g/ha): 10 | Japonica 2 plant response rating (Japonica rice [3]; Rate 16 g/ha): 15 | Japonica 1 plant response rating (Japonica rice [3]; Rate 32 g/ha): 15 | Japonica 2 plant response rating (Japonica rice [3]; Rate 32 g/ha): 20 | Japonica 1 plant response rating (Japonica rice [3]; Rate 64 g/ha): 15 | Japonica 2 plant response rating (Japonica rice [3]; Rate 64 g/ha): 15 | Japonica 1 plant response rating (Japonica rice [3]; Rate 125 g/ha): 20 | Japonica 2 plant response rating (Japonica rice [3]; Rate 125 g/ha): 20 | Barnyardgrass 2 plant response rating (barnyardgrass [4]; Rate 8 g/ha): 15 | Barnyardgrass 3 plant response rating (barnyardgrass [4]; Rate 8 g/ha): 25 | Barnyardgrass 2 plant response rating (barnyardgrass [4]; Rate 16 g/ha): 25 | Barnyardgrass 3 plant response rating (barnyardgrass [4]; Rate 16 g/ha): 20 | Barnyardgrass 2 plant response rating (barnyardgrass [4]; Rate 32 g/ha): 45 | Barnyardgrass 3 plant response rating (barnyardgrass [4]; Rate 32 g/ha): 35 | Barnyardgrass 2 plant response rating (barnyardgrass [4]; Rate 64 g/ha): 60 | Barnyardgrass 3 plant response rating (barnyardgrass [4]; Rate 64 g/ha): 40 | Barnyardgrass 2 plant response rating (barnyardgrass [4]; Rate 125 g/ha): 85 | Barnyardgrass 3 plant response rating (barnyardgrass [4]; Rate 125 g/ha): 50
